The source of these data is patent US20240218022A1, “ANTI-VISTA MACROCYCLIC PEPTIDES AND COMPOSITIONS” (BRISTOL-MYERS SQUIBB COMPANY, priority 2022, published 2024).

As usually defined, the IC50 is the concentration at which inhibition is half-maximal.

Structures are written as SMILES. Positions of bridges follow the written chain, without caps; N, C: chain ends. Non-standard residues stand in square brackets, D forms with d. Residues, ends and D or L forms follow the SMILES beside them. 2Nal = N[C@@H](Cc1ccc2ccccc2c1)C(=O)O; Tic = O=C(O)[C@@H]1Cc2ccccc2CN1; Cit = NC(=O)NCCC[C@H](N)C(=O)O; Ahp(2) = CCCCC[C@H](N)C(=O)O; NMeNle = CCCC[C@H](NC)C(=O)O; NHexGly = CCCCCCNCC(=O)O; Nle = CCCC[C@H](N)C(=O)O; Orn = NCCC[C@H](N)C(=O)O

In this experiment the target is T1, mouse VISTA (mVISTA) (Mus musculus, UniProt Q9D659).
T1 construct: expressed in transfected cells; host or cells: Human embryonic kidney 293T cells
T1 sequence (Q9D659 33-308): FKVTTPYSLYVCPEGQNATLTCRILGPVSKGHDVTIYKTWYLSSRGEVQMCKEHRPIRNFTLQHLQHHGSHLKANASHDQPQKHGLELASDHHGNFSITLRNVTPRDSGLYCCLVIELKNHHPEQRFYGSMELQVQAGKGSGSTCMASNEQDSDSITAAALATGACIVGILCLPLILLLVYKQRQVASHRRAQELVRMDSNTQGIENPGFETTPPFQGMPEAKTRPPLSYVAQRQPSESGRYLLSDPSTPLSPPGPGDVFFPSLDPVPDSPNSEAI
Description: Cell-Based Binding High-Content Assay For mVISTA (HC CBA mVISTA). To be noted: cell-based binding high-content assay, mVISTA; the 16th table; read-out: HC CBA mVISTA IC50. The gist of the method: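 Read-out: Alexa 647–streptavidin signal imaged on fixed, Hoechst-stained mVISTA-293T cells, with IC50 taken from a four-parameter logistic curve. Compounds competed with 2 nM biotinylated peptide for 30 min at room temperature, tested under both no-wash and wash (1 h compound, media exchange, 1 h) formats.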

With `CCCCCCN1CC(=O)N[C@@H](Cc2ccc(O)cc2)C(=O)N[C@@H](CCCC)C(=O)N[C@@H](CC(N)=O)C(=O)N[C@@H](CCCNC(N)=O)C(=O)N2Cc3ccccc3C[C@H]2C(=O)N[C@@H](CCCCC)C(=O)N2CCC[C@H]2C(=O)N[C@@H](C(C)C)C(=O)N[C@@H](CC(=O)O)C(=O)N[C@H](C(=O)NCC(N)=O)CSCC(=O)N[C@@H](Cc2ccc3ccccc3c2)C(=O)N[C@@H](Cc2ccc(O)cc2)C(=O)N[C@@H](CC(=O)O)C1=O` [Ex 1305] ({CH2CO}-[2Nal]YD[NHexGly]Y[Nle]N[Cit][Tic][Ahp(2)]PVDCG-NH2; thioether N-14), the half-maximal inhibitory concentration (IC50) was found to be 10.3 nM.
Under `CCCCCCN1CC(=O)N[C@@H](Cc2ccc(O)cc2)C(=O)N[C@@H](CCCC)C(=O)N[C@@H](CC(N)=O)C(=O)N[C@@H](CCCNC(N)=O)C(=O)N2Cc3ccccc3C[C@H]2C(=O)N[C@@H](CCCCC)C(=O)N2CCC[C@H]2C(=O)N[C@@H](C(C)C)C(=O)N[C@@H](CO)C(=O)N[C@H](C(=O)NCC(N)=O)CSCC(=O)N[C@@H](Cc2ccc3ccccc3c2)C(=O)N[C@@H](Cc2ccc(O)cc2)C(=O)N[C@@H](CC(=O)O)C1=O` [Ex 1306] ({CH2CO}-[2Nal]YD[NHexGly]Y[Nle]N[Cit][Tic][Ahp(2)]PVSCG-NH2; thioether N-14) stands 25.2 nM.
The value for `CCCCCCN1CC(=O)N[C@@H](Cc2ccc(O)cc2)C(=O)N[C@@H](CCCC)C(=O)N[C@@H](CC(N)=O)C(=O)N[C@@H](CCCNC(=N)N)C(=O)N2Cc3ccccc3C[C@H]2C(=O)N[C@@H](CCCCC)C(=O)N2CCC[C@H]2C(=O)N[C@@H](C(C)C)C(=O)N[C@@H](CC(=O)O)C(=O)N[C@H](C(=O)NCC(N)=O)CSCC(=O)N[C@@H](Cc2ccc3ccccc3c2)C(=O)N[C@@H](Cc2ccc(O)cc2)C(=O)N[C@@H](CC(=O)O)C1=O` [Ex 1307] ({CH2CO}-[2Nal]YD[NHexGly]Y[Nle]NR[Tic][Ahp(2)]PVDCG-NH2; thioether N-14) was 11.4 nM.
The value for `CCCCCCN1CC(=O)N[C@@H](Cc2ccc(O)cc2)C(=O)N[C@@H](CCCC)C(=O)N[C@@H](CC(N)=O)C(=O)N[C@@H](CCCNC(=N)N)C(=O)N(C)[C@@H](CCCC)C(=O)N[C@@H](CCCCC)C(=O)N2CCC[C@H]2C(=O)N[C@@H](C(C)C)C(=O)N[C@@H](CC(=O)O)C(=O)N[C@H](C(=O)NCC(=O)O)CSCC(=O)N[C@@H](Cc2ccc3ccccc3c2)C(=O)N[C@@H](Cc2ccc(O)cc2)C(=O)N[C@@H](CC(=O)O)C1=O` [Ex 1308] ({CH2CO}-[2Nal]YD[NHexGly]Y[Nle]NR[NMeNle][Ahp(2)]PVDCG-OH; thioether N-14) was 9.5 nM.
Consider `CCCCCCN1CC(=O)N[C@@H](Cc2ccc(O)cc2)C(=O)N[C@@H](C(C)C)C(=O)NCC(=O)N[C@@H](CCCNC(=N)N)C(=O)N[C@@H](CC(C)C)C(=O)N[C@@H](CCCCC)C(=O)N2CCC[C@H]2C(=O)N[C@@H](C(C)C)C(=O)N[C@@H](CC(=O)O)C(=O)N[C@H](C(=O)N[C@@H](CC(C)C)C(N)=O)CSCC(=O)N[C@@H](Cc2ccc3ccccc3c2)C(=O)N[C@@H](Cc2ccc(O)cc2)C(=O)N[C@@H](CC(=O)O)C1=O` [Ex 1309] ({CH2CO}-[2Nal]YD[NHexGly]YVGRL[Ahp(2)]PVDCL-NH2; thioether N-14), for which the IC50 was determined as 5.2 nM.
Under `CCCCCCN1CC(=O)N[C@@H](Cc2ccc(O)cc2)C(=O)N[C@@H](C(C)C)C(=O)NCC(=O)N[C@@H](CCCNC(=N)N)C(=O)N[C@@H](CC(C)C)C(=O)N[C@@H](CCCCC)C(=O)N2CCC[C@H]2C(=O)N[C@@H](C(C)C)C(=O)N[C@@H](CC(=O)O)C(=O)N[C@H](C(=O)N[C@@H](CC(N)=O)C(N)=O)CSCC(=O)N[C@@H](Cc2ccc3ccccc3c2)C(=O)N[C@@H](Cc2ccc(O)cc2)C(=O)N[C@@H](CC(=O)O)C1=O` [Ex 1310] ({CH2CO}-[2Nal]YD[NHexGly]YVGRL[Ahp(2)]PVDCN-NH2; thioether N-14) stands 3.4 nM.
Under `CCCCCCN1CC(=O)N[C@@H](Cc2ccc(O)cc2)C(=O)N[C@@H](CCCC)C(=O)N[C@@H](CC(N)=O)C(=O)N[C@@H](CCCNC(=N)N)C(=O)N[C@@H](CC(C)C)C(=O)N[C@@H](CCCCC)C(=O)N2CCC[C@H]2C(=O)N[C@@H](C(C)C)C(=O)N[C@@H](CC(=O)O)C(=O)N[C@H](C(=O)N[C@@H](CC(N)=O)C(N)=O)CSCC(=O)N[C@@H](Cc2ccc3ccccc3c2)C(=O)N[C@@H](Cc2ccc(O)cc2)C(=O)N[C@@H](CC(=O)O)C1=O` [Ex 1311] ({CH2CO}-[2Nal]YD[NHexGly]Y[Nle]NRL[Ahp(2)]PVDCN-NH2; thioether N-14) stands 8.3 nM.
The value for `CCCCCCN1CC(=O)N[C@@H](Cc2ccc(O)cc2)C(=O)N[C@@H](C(C)C)C(=O)NCC(=O)N[C@@H](CCCNC(=N)N)C(=O)N[C@@H](CC(C)C)C(=O)N[C@@H](CCCCC)C(=O)N2CCC[C@H]2C(=O)N[C@@H](C(C)C)C(=O)N[C@@H](CC(=O)O)C(=O)N[C@H](C(=O)N[C@@H](CCCNC(=N)N)C(N)=O)CSCC(=O)N[C@@H](Cc2ccc3ccccc3c2)C(=O)N[C@@H](Cc2ccc(O)cc2)C(=O)N[C@@H](CC(=O)O)C1=O` [Ex 1312] ({CH2CO}-[2Nal]YD[NHexGly]YVGRL[Ahp(2)]PVDCR-NH2; thioether N-14) was 7.7 nM.
As for `CCCCCCN1CC(=O)N[C@@H](Cc2ccc(O)cc2)C(=O)N[C@@H](C(C)C)C(=O)NCC(=O)N[C@@H](CCCNC(=N)N)C(=O)N[C@@H](CC(C)C)C(=O)N[C@@H](CCCCC)C(=O)N2CCC[C@H]2C(=O)N[C@@H](C(C)C)C(=O)N[C@@H](CC(=O)O)C(=O)N[C@H](C(=O)N[C@@H](CO)C(N)=O)CSCC(=O)N[C@@H](Cc2ccc3ccccc3c2)C(=O)N[C@@H](Cc2ccc(O)cc2)C(=O)N[C@@H](CC(=O)O)C1=O` [Ex 1314] ({CH2CO}-[2Nal]YD[NHexGly]YVGRL[Ahp(2)]PVDCS-NH2; thioether N-14), the IC50 was determined as 1.4 nM.
Under `CCCCCCN1CC(=O)N[C@@H](Cc2ccc(O)cc2)C(=O)N[C@@H](CCCC)C(=O)N[C@@H](CC(N)=O)C(=O)N[C@@H](CCCNC(=N)N)C(=O)N[C@@H](CC(C)C)C(=O)N[C@@H](CCCCC)C(=O)N2CCC[C@H]2C(=O)N[C@@H](C(C)C)C(=O)N[C@@H](CC(=O)O)C(=O)N[C@H](C(=O)N[C@@H](CO)C(N)=O)CSCC(=O)N[C@@H](Cc2ccc3ccccc3c2)C(=O)N[C@@H](Cc2ccc(O)cc2)C(=O)N[C@@H](CC(=O)O)C1=O` [Ex 1315] ({CH2CO}-[2Nal]YD[NHexGly]Y[Nle]NRL[Ahp(2)]PVDCS-NH2; thioether N-14) stands 37.1 nM; under `CCCCCCN1CC(=O)N[C@@H](Cc2ccc(O)cc2)C(=O)N[C@@H](C(C)C)C(=O)NCC(=O)N[C@@H](CCCNC(N)=O)C(=O)N[C@@H](CC(C)C)C(=O)N[C@@H](CCCCC)C(=O)N2CCC[C@H]2C(=O)N[C@@H](C(C)C)C(=O)N[C@@H](CC(=O)O)C(=O)N[C@H](C(=O)N[C@@H](CO)C(N)=O)CSCC(=O)N[C@@H](Cc2ccc3ccccc3c2)C(=O)N[C@@H](Cc2ccc(O)cc2)C(=O)N[C@@H](CC(=O)O)C1=O` [Ex 1316] ({CH2CO}-[2Nal]YD[NHexGly]YVG[Cit]L[Ahp(2)]PVDCS-NH2; thioether N-14), 10.6 nM.
Under `CCCCCCN1CC(=O)N[C@@H](Cc2ccc(O)cc2)C(=O)N[C@@H](CCCC)C(=O)N[C@@H](CC(=O)O)C(=O)N[C@@H](CCCNC(=N)N)C(=O)N[C@@H](CC(C)C)C(=O)N[C@@H](CCCCC)C(=O)N2CCC[C@H]2C(=O)N[C@@H](C(C)C)C(=O)N[C@@H](CC(=O)O)C(=O)N[C@H](C(=O)N[C@@H](CO)C(N)=O)CSCC(=O)N[C@@H](Cc2ccc3ccccc3c2)C(=O)N[C@@H](Cc2ccc(O)cc2)C(=O)N[C@@H](CC(=O)O)C1=O` [Ex 1317] ({CH2CO}-[2Nal]YD[NHexGly]Y[Nle]DRL[Ahp(2)]PVDCS-NH2; thioether N-14) stands 17.5 nM; under `CCCCCCN1CC(=O)N[C@@H](Cc2ccc(O)cc2)C(=O)N[C@@H](CCCC)C(=O)N[C@@H](CC(=O)O)C(=O)N[C@@H](CCCNC(=N)N)C(=O)N(C)[C@@H](CCCC)C(=O)N[C@@H](CCCCC)C(=O)N2CCC[C@H]2C(=O)N[C@@H](C(C)C)C(=O)N[C@@H](CC(=O)O)C(=O)N[C@H](C(=O)N[C@@H](CO)C(N)=O)CSCC(=O)N[C@@H](Cc2ccc3ccccc3c2)C(=O)N[C@@H](Cc2ccc(O)cc2)C(=O)N[C@@H](CC(=O)O)C1=O` [Ex 1318] ({CH2CO}-[2Nal]YD[NHexGly]Y[Nle]DR[NMeNle][Ahp(2)]PVDCS-NH2; thioether N-14), 11.9 nM; under `CCCCCCN1CC(=O)N[C@@H](Cc2ccc(O)cc2)C(=O)N[C@@H](CCCC)C(=O)N[C@@H](CC(=O)O)C(=O)N[C@@H](CCCN)C(=O)N[C@@H](CC(C)C)C(=O)N[C@@H](CCCCC)C(=O)N2CCC[C@H]2C(=O)N[C@@H](C(C)C)C(=O)N[C@@H](CC(=O)O)C(=O)N[C@H](C(=O)N[C@@H](CO)C(N)=O)CSCC(=O)N[C@@H](Cc2ccc3ccccc3c2)C(=O)N[C@@H](Cc2ccc(O)cc2)C(=O)N[C@@H](CC(=O)O)C1=O` [Ex 1319] ({CH2CO}-[2Nal]YD[NHexGly]Y[Nle]D[Orn]L[Ahp(2)]PVDCS-NH2; thioether N-14), 13.7 nM.
Under `CCCCCCN1CC(=O)N[C@@H](Cc2ccc(O)cc2)C(=O)N[C@@H](CCCC)C(=O)N[C@@H](CC(=O)O)C(=O)N[C@@H](CCCN)C(=O)N(C)[C@@H](CCCC)C(=O)N[C@@H](CCCCC)C(=O)N2CCC[C@H]2C(=O)N[C@@H](C(C)C)C(=O)N[C@@H](CC(=O)O)C(=O)N[C@H](C(=O)N[C@@H](CO)C(N)=O)CSCC(=O)N[C@@H](Cc2ccc3ccccc3c2)C(=O)N[C@@H](Cc2ccc(O)cc2)C(=O)N[C@@H](CC(=O)O)C1=O` [Ex 1320] ({CH2CO}-[2Nal]YD[NHexGly]Y[Nle]D[Orn][NMeNle][Ahp(2)]PVDCS-NH2; thioether N-14) stands 21.3 nM.
